Measured values from publication PMC8480782, “Efficient Dimerization Disruption of Leishmania infantum Trypanothione Reductase by Triazole-phenyl-thiazoles” (Journal of Medicinal Chemistry, 2021).

Tests used:
LiTryR [1] = target: T1, LiTryR (Leishmania infantum, UniProt A4HSF7); assay: Residual activity of LiTryR after incubation with inhibitor and 2500-fold dilution; format: biochemical; conditions: LiTryR 400 nM, 25 μM inhibitor 16 h
T1 construct: HIS (N); made in house; host or cells: E. coli BL21 (DE3) Rossetta
Experimental: Adjustment to eq 1 (see equations in Experimental Section) of the progress curves of the reactions catalyzed by LiTryR allowed us to obtain the kobs values for six 19a concentrations (4.4, 5.9, 7.9, 10.5, 14.1, and 18.7 μM) at six different TS2 concentrations (3.1, 6.2, 12.5, 25, 50, and 100 μM) (Figures S2–S7 and Table S2). The different kobs values obtained at each substrate concentration can be used to determine the apparent inhibitory constants Ki^app and Ki*^app defined as the dissociation constant for the initial EI complex and the constant for the overall dissociation from E*I to E + I, respectively (eq 2).[42a],[42b] Based on the relationship among kobs, vi, and vs (k6 = kobs × vi/vs) at all of the trypanothione disulfide (TS2) and 19a concentrations assayed, k6 varies between 3.9 × 10^–6 and 6.5 × 10^–5 s^–1. […] Fixing this value for k6 rendered very good estimations of Ki^app and Ki*^app after the fitting process for all of the substrate concentrations assayed (Figure 3 and Table 2).
Scheme S4. Reversible sing le-step mechanism of t im e- dependent inhibition of Li TryR by […]
& A slow and reversible equilibrium between enzyme and inhibitor is governed by association and dissociation rate constants (k3 and k4, res pec tively).
Figure S13. Residual activity of Li TryR after incubation with 19a. […] Samples were diluted (2500-fold) and residual activity was evaluated. […]

LiTryR [2] = target: T1, LiTryR; assay: Trypanothione-dependent NADPH oxidation assay (initial velocities); format: biochemical
Experimental: Despite the loss of activity observed during the reaction, dependency of the initial velocities (vi) on 19a and TS2 concentrations could be fitted to a model in which a rapid equilibrium is reached between the free enzyme and inhibitor (E + I) and the enzyme/inhibitor (EI) complex (Scheme 4). This analysis, based on vi values, was performed both in a DTNB-coupled assay and in a direct NADPH-oxidation assay (Figure S1 and Table S1).
Figure S1. Noncompetitive hyperbolic inhibition of Li TryR by 19a. Initial velocities were used for determination of the KKi value and assessment of the inhibition modality of 19a by two different methods: DTNB-coupled assay (absorbance readings at 412 nm) (A) and trypanothione- dependent NADPH oxidation assay (absorbance readings at 340 nm) (B).
Lineweaver–Burk plots of reciprocal initial velocities ( vi) versus reciprocals of four TS2 concentrations (12.5, 25, 50 and 100 μM) are shown. Experimental conditions in both experiments were similar to those described in the experimental section except that for the NADPH oxidation assay NADPH concentration was raised to 500 µM, NADP+ to 100 µM and 4.8 mM of oxidized glutathione was added. Data were f itted using the hyperbolic noncompetitive- mode equation described by Leskovac: […]
Table S1. Estimation of β and Ki in the noncompetitive hyperbolic inhibition mechanism by […]

T1 sequence (A4HSF7 1-491): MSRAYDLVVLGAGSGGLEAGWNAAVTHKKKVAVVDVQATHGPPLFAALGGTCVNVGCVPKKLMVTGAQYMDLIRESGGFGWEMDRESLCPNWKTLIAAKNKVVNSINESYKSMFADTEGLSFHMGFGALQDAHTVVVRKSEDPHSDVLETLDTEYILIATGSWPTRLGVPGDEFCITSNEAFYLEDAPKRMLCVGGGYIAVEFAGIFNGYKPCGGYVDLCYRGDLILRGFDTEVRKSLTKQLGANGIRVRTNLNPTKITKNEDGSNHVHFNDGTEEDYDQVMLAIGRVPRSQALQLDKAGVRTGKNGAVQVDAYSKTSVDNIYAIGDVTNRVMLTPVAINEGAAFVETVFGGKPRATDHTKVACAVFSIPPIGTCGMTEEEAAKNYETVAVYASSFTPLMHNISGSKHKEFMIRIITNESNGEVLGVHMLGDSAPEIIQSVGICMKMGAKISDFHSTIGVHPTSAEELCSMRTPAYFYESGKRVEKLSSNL

Q: For `NCCCCc1cn(-c2ccc(-c3nc(-c4ccccc4)c(-c4ccccc4)s3)c(OCCN3CCNC3=O)c2)nn1.O=C(O)C(F)(F)F` [19a, 1-(2-(5-(4-(4-Ammoniobutyl)-1H-1,2,3-triazol-1-yl)-2-(4,5-diphenylthiazol-2-yl)phenoxy)ethyl)imidazolidin-2-one 2,2,2-Trifluoroacetate], which “recovery of enzymatic activity after inactivation” value (LiTryR [1]) is on record?
A: extremely slow process of recovery of the enzymatic activity

Q: And the Ki (LiTryR [2])?
A: 2.5 ± 0.7 µM

Q: What about the “β, noncompetitive hyperbolic inhibition mechanism” value (LiTryR [2]; NADPH oxidation assay, initial velocities, alpha value of 1) of the same compound?
A: 0.2 ± 0.1
